Data as given in ChEMBL document CHEMBL1201862, “PubChem BioAssay data set” (2004).
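In this assay, cells in 96-well plates receive the compound at five concentrations for 48 hours. Endpoints are linearly interpolated between the surrounding concentrations. The concentration for 50% growth inhibition is given as GI50.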 Calls of active or inactive are those of the source. Rule as the data show it: active = GI50 up to about 1.1 µM and inactive = higher.

Columns and labels:
Experiment in all cases: NCI tumour cell line growth inhibition, 48 h
[1] = tested on: 786-0
[2] = tested on: A498
[3] = tested on: ACHN
[4] = tested on: BT-549
[5] = tested on: DU-145
[6] = tested on: K562
[7] = tested on: KM12
[8] = tested on: MCF7
[9] = tested on: MDA-MB-435
[10] = tested on: MOLT-4
[11] = tested on: NCI-H226
[12] = tested on: OVCAR-8
[13] = tested on: PC-3
[14] = tested on: RPMI-8226
[15] = tested on: SF-295
[16] = tested on: SK-MEL-28
[17] = tested on: SNB-19
[18] = tested on: SR
[19] = tested on: UACC-257
[20] = tested on: UO-31

SMILES	GI50 [1]	GI50 [2]	GI50 [3]	GI50 [4]	GI50 [5]	GI50 [6]	GI50 [7]	GI50 [8]	GI50 [9]	GI50 [10]	GI50 [11]	GI50 [12]	GI50 [13]	GI50 [14]	GI50 [15]	GI50 [16]	GI50 [17]	GI50 [18]	GI50 [19]	GI50 [20]
C[As+](C)(c1ccc(Br)c([N+](=O)[O-])c1)c1ccc(Br)c([N+](=O)[O-])c1	> 100 µM (inactive)	> 100 µM (inactive)	> 100 µM (inactive)	> 100 µM (inactive)	> 100 µM (inactive)	> 100 µM (inactive)	> 100 µM (inactive)	> 100 µM (inactive)	> 100 µM (inactive)	> 100 µM (inactive)	> 100 µM (inactive)	> 100 µM (inactive)	> 100 µM (inactive)	44.7 µM (inactive)	> 100 µM (inactive)	27.9 µM (inactive)	> 100 µM (inactive)	> 100 µM (inactive)	> 100 µM (inactive)	> 100 µM (inactive)
CN(N=O)C(=O)NNC(=O)N(C)N=O	48.3 µM (inactive)	> 100 µM (inactive)	> 100 µM (inactive)	91.8 µM (inactive)	> 100 µM (inactive)	66.1 µM (inactive)	> 100 µM (inactive)	35.6 µM (inactive)	> 100 µM (inactive)	35.2 µM (inactive)	> 100 µM (inactive)	55.3 µM (inactive)	90.6 µM (inactive)	32.7 µM (inactive)	94.6 µM (inactive)	> 100 µM (inactive)	> 100 µM (inactive)	8.81 µM (inactive)	> 100 µM (inactive)	83.9 µM (inactive)
COc1ccccc1Nc1nc(N)nc(N)c1N=O	> 100 µM (inactive)	> 100 µM (inactive)	> 100 µM (inactive)	> 100 µM (inactive)	> 100 µM (inactive)	> 100 µM (inactive)	> 100 µM (inactive)	> 100 µM (inactive)	> 100 µM (inactive)	> 100 µM (inactive)	> 100 µM (inactive)	> 100 µM (inactive)	> 100 µM (inactive)	> 100 µM (inactive)	> 100 µM (inactive)	> 100 µM (inactive)	> 100 µM (inactive)	> 100 µM (inactive)	> 100 µM (inactive)	> 100 µM (inactive)
C=C(C(=O)OC)c1cc2ccccc2n1S(=O)(=O)c1ccccc1	6.05 µM (inactive)	2.15 µM (inactive)	1.8 µM (inactive)	1.73 µM (inactive)	2.69 µM (inactive)	2.34 µM (inactive)	2.04 µM (inactive)	1.38 µM (inactive)	2.55 µM (inactive)	2.21 µM (inactive)	2.36 µM (inactive)	2.44 µM (inactive)	1.96 µM (inactive)	1.28 µM (inactive)	7.66 µM (inactive)	2.38 µM (inactive)	12.1 µM (inactive)	0.815 µM (active)	4.86 µM (inactive)	2.36 µM (inactive)
COc1ccc(C(c2ccc3c(c2)OCO3)N2C(=O)CCC2C(=O)O)cc1 (stereo not given)	> 100 µM (inactive)	> 100 µM (inactive)	> 100 µM (inactive)	> 100 µM (inactive)	> 100 µM (inactive)	> 100 µM (inactive)	> 100 µM (inactive)	> 100 µM (inactive)	> 100 µM (inactive)	> 100 µM (inactive)	> 100 µM (inactive)	> 100 µM (inactive)	> 100 µM (inactive)	> 100 µM (inactive)	> 100 µM (inactive)	> 100 µM (inactive)	> 100 µM (inactive)	> 100 µM (inactive)	> 100 µM (inactive)	> 100 µM (inactive)
O=[N+]([O-])c1cccc(/C=N/NC2=CS(=O)(=O)C=C2)c1	> 100 µM (inactive)	> 100 µM (inactive)	> 100 µM (inactive)	78.7 µM (inactive)	> 100 µM (inactive)	> 100 µM (inactive)	> 100 µM (inactive)	> 100 µM (inactive)	> 100 µM (inactive)	> 100 µM (inactive)	> 100 µM (inactive)	> 100 µM (inactive)	> 100 µM (inactive)	> 100 µM (inactive)	> 100 µM (inactive)	> 100 µM (inactive)	> 100 µM (inactive)	> 100 µM (inactive)	> 100 µM (inactive)	> 100 µM (inactive)
C[n+]1c(-c2ccc(NC(=O)c3ccc(C(=O)Nc4ccc(-c5cn6ccccc6[n+]5C)cc4)cc3)cc2)cn2ccccc21	29 µM (inactive)	39.1 µM (inactive)	> 100 µM (inactive)	> 100 µM (inactive)	> 100 µM (inactive)	> 100 µM (inactive)	> 82.6 µM (inactive)	> 75 µM (inactive)	> 67.3 µM (inactive)	> 67.9 µM (inactive)	> 100 µM (inactive)	> 100 µM (inactive)	> 100 µM (inactive)	14.3 µM (inactive)	47.5 µM (inactive)	> 100 µM (inactive)	> 100 µM (inactive)	18.5 µM (inactive)	> 100 µM (inactive)	> 100 µM (inactive)
COc1ccc2c(=O)c3ccoc3n(CC=C(C)C)c2c1 [ACROPHYLLINE]	> 91.6 µM (inactive)	> 63.2 µM (inactive)	8.49 µM (inactive)	35.4 µM (inactive)	34 µM (inactive)	48.9 µM (inactive)	45.9 µM (inactive)	33.7 µM (inactive)	75.9 µM (inactive)	25.2 µM (inactive)	> 87.9 µM (inactive)	39.5 µM (inactive)	36.4 µM (inactive)	22.4 µM (inactive)	57.9 µM (inactive)	60.5 µM (inactive)	> 76.6 µM (inactive)	31 µM (inactive)	75.2 µM (inactive)	18.2 µM (inactive)
